Laboratory results published in patent publication US10934326B2, “Peripheral modifications on pocket-redesigned vancomycin analogs synergistically improve antimicrobial potency and durability” (priority 2016, dated 2021).

Columns and labels:
[1] = system: vancomycin-resistant Enterococcus faecalis (VanB VRE, strain ATCC 51299); details: previously reported data; cited from earlier work
[2] = system: vancomycin-sensitive Staphylococcus aureus (VSSA strain ATCC 25923); details: previously reported data; cited from earlier work
[3] = system: VanA VRE (E. faecalis BM 4166 and E. faecium ATCC BAA-2317); assay: Cell wall biosynthesis inhibition assay (accumulation of UDPMurNAc-pp 19); type: cell-based, Enterococcus faecalis; Enterococcus faecium; details: 35 μg/mL, tetracycline pretreated VanA VRE, 30 minutes, 37° C.
Source text: The inhibition of bacterial cell wall synthesis was established in an assay that quantitates the accumulation of the peptidoglycan precursor UDP-N-acetyl-muramyl-depsipentapeptide (Compound 19, UDPMurNAc-pp), resulting from inhibited cell wall incorporation following antibiotic treatment. […] This procedure was reduced in scale and modified to enlist reverse-phase HPLC separation, UV detection, and calibration curve determination of the amount of isolated 19, permitting use with limited sample sizes. A larger scale isolation and full characterization of 19 provided the material needed to establish a linear calibration curve.
The bacterial suspension was heated at 100° C. for 15 minutes to release cytosolic 19. The entire supernatant was analyzed by semi-preparative reverse-phase HPLC with a single injection and the amount of 19 was quantitated with use of the calibration curve.
Cultures of vancomycin-resistant Enterococcus faecalis (VanA VRE, BM4166) and Enterococcus faecium (VanA VRE, ATCC BAA-2317) were inoculated and grown in an orbital shaker at 37° C. in 100% brain-heart infusion broth for 12 hours. The above bacterial solution was subjected to a subculture to obtain fresh mid-log phase bacterial cells (total volume of bacterial suspension=5 mL, incubation time=6 hours, OD600=0.6). […] Vancomycin analogues were added and the mixture was incubated at 37° C. for a further 30 minutes.
After the bacteria were harvested (3000 rpm, 4° C., 20 minutes), this bacterial precipitate was washed and resuspended in 5 mM glucose and 5 mM HEPES buffer (500 μL, 1:1, pH=7.2). This bacterial suspension was heated at 100° C. for 15 minutes and centrifuged (13000 rpm, 25° C., 10 minutes). […] [*****Allen et al., Antimicrob. Agents Chemother. 1996, 40(10):2356-2362]; Liu et al., J. Am. Chem. Soc. 2001, 123:9916-9917.] The amount of UDP Mur N-Ac pentapeptide (19) was quantified by use of calibration curves for E. faecalis BM4166, and for E. faecium ATCC BAA-2317 based on the area under the curve (AUC).

[4] = system: VanA VRE (E. faecalis BM 4166 and E. faecium ATCC BAA-2317); assay: Cell wall permeability assay (propidium iodide uptake); type: cell-based, Enterococcus faecalis; Enterococcus faecium; details: 10 μM compound
[5] = system: VSSA, MRSA, VanA and VanB VRE; details: cited from earlier work
[6] = system: Enterococcus faecium (VanA VRE, ATCC BAA-2317); details: previously reported data; cited from earlier work
[7] = system: methicillin and oxacillin-resistant Staphylococcus aureus subsp. aureus (MRSA strain ATCC 43300); details: previously reported data; cited from earlier work
[8] = system: vancomycin-resistant Enterococcus faecalis (VanA VRE, BM4166); details: BM 4166; previously reported data; cited from earlier work

SMILES: CN[C@H](CC(C)C)C(=O)N[C@H]1C(=O)N[C@@H](CC(N)=O)C(=O)N[C@H]2C(=S)N[C@@H]3C(=O)N[C@H](C(=O)N[C@H](C(=O)O)c4cc(O)cc(O)c4-c4cc3ccc4O)[C@H](O)c3ccc(c(Cl)c3)Oc3cc2cc(c3OC2OC(CO)C(O)[C@H](O)[C@@H]2O[C@H]2CC(C)(NCc3ccc(-c4ccc(Cl)cc4)cc3)[C@H](O)[C@H](C)O2)Oc2ccc(cc2Cl)[C@H]1O (some centres unmarked) [Compound 6]
- Antimicrobial Activity, MIC, VanB E. faecalis [1]: 2 µg/mL
- Antimicrobial Activity, MIC, sensitive S. aureus [2]: 2 µg/mL
- inhibition of bacterial cell wall synthesis (accumulation of 19) [3]: inhibit cell wall biosynthesis to a similar extent
- induced cell membrane permeability (propidium uptake) [4]: Neither compound significantly impacts membrane permeability
- MICs (range over panel) [5]: 2 to 4 µg/mL
- Antimicrobial Activity, MIC, VanA E. faecium [6]: 4 µg/mL
- Antimicrobial Activity, MIC, MRSA S. aureus [7]: 2 µg/mL
- Antimicrobial Activity, MIC, VanA E. faecalis [8]: 4 µg/mL
